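Here, GI50 denotes the concentration required for 50% inhibition of growth. TGI: concentration producing complete growth inhibition.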
Columns and labels:
Experiment in all cases: DTP human tumour cell line panel, 384-well format
NCI-H23 lung = system: NCI-H23 lung
NCI-H522 lung = system: NCI-H522 lung
MDA-MB-468 breast = system: MDA-MB-468 breast
SK-OV-3 ovarian = system: SK-OV-3 ovarian
NCI/ADR-RES ovarian = system: NCI/ADR-RES ovarian
HOP-62 NSCLC = system: HOP-62 NSCLC
EKVX NSCLC = system: EKVX NSCLC
PC-3 prostate = system: PC-3 prostate
SNB-75 CNS = system: SNB-75 CNS
MCF7 breast = system: MCF7 breast
MOLT-4 leukemia = system: MOLT-4 leukemia
HCC-2998 colon = system: HCC-2998 colon
786-0 renal = system: 786-0 renal
HL-60(TB) leukemia = system: HL-60(TB) leukemia
NCI-H460 NSCLC = system: NCI-H460 NSCLC
BT-549 breast = system: BT-549 breast
SW-620 colon = system: SW-620 colon
SK-MEL-5 melanoma = system: SK-MEL-5 melanoma
CCRF-CEM leukemia = system: CCRF-CEM leukemia
SF-268 CNS = system: SF-268 CNS
SK-MEL-28 melanoma = system: SK-MEL-28 melanoma
UO-31 renal = system: UO-31 renal
RXF 393 renal = system: RXF 393 renal
UACC-62 melanoma = system: UACC-62 melanoma
A549 NSCLC = system: A549 NSCLC
DU-145 prostate = system: DU-145 prostate
UACC-257 melanoma = system: UACC-257 melanoma
OVCAR-8 ovarian = system: OVCAR-8 ovarian
SR leukemia = system: SR leukemia
MALME-3M melanoma = system: MALME-3M melanoma
MDA-MB-435 melanoma = system: MDA-MB-435 melanoma
HS 578T breast = system: HS 578T breast
IGROV1 ovarian = system: IGROV1 ovarian
NCI-H226 lung = system: NCI-H226 lung
SNB-19 CNS = system: SNB-19 CNS
COLO 205 colon = system: COLO 205 colon
OVCAR-4 ovarian = system: OVCAR-4 ovarian
OVCAR-3 ovarian = system: OVCAR-3 ovarian
LOX IMVI melanoma = system: LOX IMVI melanoma
SF-539 CNS = system: SF-539 CNS
HCT-15 colon = system: HCT-15 colon
OVCAR-5 ovarian = system: OVCAR-5 ovarian
A498 renal = system: A498 renal
TK-10 renal = system: TK-10 renal
KM12 colon = system: KM12 colon
CAKI-1 renal = system: CAKI-1 renal
SN12C renal = system: SN12C renal
SF-295 CNS = system: SF-295 CNS
ACHN renal = system: ACHN renal
MDA-MB-231 breast = system: MDA-MB-231 breast
K-562 leukemia = system: K-562 leukemia
HT29 colon = system: HT29 colon
NCI-H322M lung = system: NCI-H322M lung
M14 melanoma = system: M14 melanoma
RPMI-8226 leukemia = system: RPMI-8226 leukemia
HOP-92 NSCLC = system: HOP-92 NSCLC

For `C[C@@H]1CCc2ncc(F)cc2[C@H]2CCCN2c2ccn3ncc(c3n2)C(=O)N1`, the GI50 (NCI-H23 lung) was 93.8 µM, the TGI (NCI-H23 lung) was > 100 µM and the GI50 (NCI-H522 lung) was 16.2 µM. The TGI (NCI-H522 lung) was > 100 µM, the GI50 (MDA-MB-468 breast) was 17 µM and the TGI (MDA-MB-468 breast) was 92 µM. For the same compound, the GI50 (SK-OV-3 ovarian) was 65 µM, the TGI (SK-OV-3 ovarian) was > 100 µM and the GI50 (NCI/ADR-RES ovarian) was > 100 µM. The TGI (NCI/ADR-RES ovarian) was > 100 µM, the GI50 (HOP-62 NSCLC) was 63.4 µM and the TGI (HOP-62 NSCLC) was > 100 µM. For the same compound, the GI50 (EKVX NSCLC) was > 100 µM, the TGI (EKVX NSCLC) was > 100 µM and the GI50 (PC-3 prostate) was > 100 µM. For the same compound, the TGI (PC-3 prostate) was > 100 µM, the GI50 (SNB-75 CNS) was 25.4 µM and the TGI (SNB-75 CNS) was > 100 µM. The GI50 (MCF7 breast) was 18.5 µM, the TGI (MCF7 breast) was > 100 µM and the GI50 (MOLT-4 leukemia) was 5.07 µM. The TGI (MOLT-4 leukemia) was 20.4 µM, the GI50 (HCC-2998 colon) was > 100 µM and the TGI (HCC-2998 colon) was > 100 µM. For the same compound, the GI50 ([…]-0 renal) was 23.6 µM, the TGI (786-0 renal) was > 100 µM and the GI50 (HL-60(TB) leukemia) was 63.1 µM. The TGI (HL-60(TB) leukemia) was > 100 µM, the GI50 (NCI-H460 NSCLC) was > 100 µM and the TGI (NCI-H460 NSCLC) was > 100 µM. For the same compound, the GI50 (BT-549 breast) was 76.3 µM, the TGI (BT-549 breast) was > 100 µM and the GI50 (SW-620 colon) was > 100 µM. For the same compound, the TGI (SW-620 colon) was > 100 µM, the GI50 (SK-MEL-5 melanoma) was > 100 µM and the TGI (SK-MEL-5 melanoma) was > 100 µM. The GI50 (CCRF-CEM leukemia) was 8.73 µM, the TGI (CCRF-CEM leukemia) was > 100 µM and the GI50 (SF-268 CNS) was 94.1 µM. For the same compound, the TGI (SF-268 CNS) was > 100 µM, the GI50 (SK-MEL-28 melanoma) was 70.2 µM and the TGI (SK-MEL-28 melanoma) was > 100 µM. The GI50 (UO-31 renal) was > 100 µM, the TGI (UO-31 renal) was > 100 µM and the GI50 (RXF 393 renal) was 3.44 µM. For the same compound, the TGI (RXF 393 renal) was > 100 µM, the GI50 (UACC-62 melanoma) was 97.9 µM and the TGI (UACC-62 melanoma) was > 100 µM. The GI50 (A549 NSCLC) was 61.9 µM, the TGI (A549 NSCLC) was > 100 µM and the GI50 (DU-145 prostate) was > 100 µM. For the same compound, the TGI (DU-145 prostate) was > 100 µM, the GI50 (UACC-257 melanoma) was 63.3 µM and the TGI (UACC-257 melanoma) was > 100 µM. For the same compound, the GI50 (OVCAR-8 ovarian) was > 100 µM, the TGI (OVCAR-8 ovarian) was > 100 µM and the GI50 (SR leukemia) was 1.63 µM. The TGI (SR leukemia) was 3.2 µM, the GI50 (MALME-3M melanoma) was 4.11 µM and the TGI (MALME-3M melanoma) was > 100 µM. For the same compound, the GI50 (MDA-MB-435 melanoma) was 57.2 µM, the TGI (MDA-MB-435 melanoma) was > 100 µM and the GI50 (HS 578T breast) was 7.78 µM. For the same compound, the TGI (HS 578T breast) was > 100 µM, the GI50 (IGROV1 ovarian) was 30.9 µM and the TGI (IGROV1 ovarian) was > 100 µM. The GI50 (NCI-H226 lung) was 5.37 µM, the TGI (NCI-H226 lung) was > 100 µM and the GI50 (SNB-19 CNS) was > 100 µM. The TGI (SNB-19 CNS) was > 100 µM, the GI50 (COLO 205 colon) was 64.9 µM and the TGI (COLO 205 colon) was > 100 µM. It also gave a GI50 (OVCAR-4 ovarian) of 10.3 µM, a TGI (OVCAR-4 ovarian) of 96.2 µM and a GI50 (OVCAR-3 ovarian) of 48.4 µM. For the same compound, the TGI (OVCAR-3 ovarian) was > 100 µM, the GI50 (LOX IMVI melanoma) was > 100 µM and the TGI (LOX IMVI melanoma) was > 100 µM. The GI50 (SF-539 CNS) was 82.1 µM, the TGI (SF-539 CNS) was > 100 µM and the GI50 (HCT-15 colon) was > 100 µM. The TGI (HCT-15 colon) was > 100 µM, the GI50 (OVCAR-5 ovarian) was 32.6 µM and the TGI (OVCAR-5 ovarian) was > 100 µM. For the same compound, the GI50 (A498 renal) was 12.3 µM, the TGI (A498 renal) was > 100 µM and the GI50 (TK-10 renal) was > 100 µM. The TGI (TK-10 renal) was > 100 µM, the TGI (KM12 colon) was > 100 µM and the GI50 (CAKI-1 renal) was 56.1 µM. For the same compound, the TGI (CAKI-1 renal) was > 100 µM, the GI50 (SN12C renal) was 20.8 µM and the TGI (SN12C renal) was > 100 µM. The GI50 (SF-295 CNS) was 30.1 µM, the TGI (SF-295 CNS) was > 100 µM and the GI50 (ACHN renal) was 28 µM. The TGI (ACHN renal) was > 100 µM, the GI50 (MDA-MB-231 breast) was 18.1 µM and the TGI (MDA-MB-231 breast) was > 100 µM. For the same compound, the GI50 (K-562 leukemia) was 7.4 µM, the TGI (K-562 leukemia) was 49 µM and the GI50 (HT29 colon) was 75.5 µM. For the same compound, the TGI (HT29 colon) was > 100 µM, the GI50 (NCI-H322M lung) was > 100 µM and the TGI (NCI-H322M lung) was > 100 µM. For the same compound, the GI50 (M14 melanoma) was 28.8 µM, the TGI (M14 melanoma) was > 100 µM and the GI50 (RPMI-8226 leukemia) was 2.36 µM. For the same compound, the TGI (RPMI-8226 leukemia) was > 100 µM, the GI50 (HOP-92 NSCLC) was 14.6 µM and the TGI (HOP-92 NSCLC) was > 100 µM.

Reference: PubChem BioAssay (NCI)
